Results from patent US8741947B2, “Biologically active macrolides, compositions, and uses thereof” (The United States of America, as represented by the …, priority 2000, dated 2014).
Values after ≈ are worked out from the molar mass of the structure shown.

Key:
[1] = target: Neurospora crassa vacuolar membrane V-ATPase; assay: V-ATPase inhibitory assay, Neurospora crassa vacuolar membrane; format: biochemical; conditions: read-out: V-ATPase (Ki, nM) NCVM
Method: (§1) The V-ATPase inhibitory assays were performed on representative compound(s) of the present invention using non-mammalian or mammalian (e.g., bovine cromaffin granule) V-ATPases as described by Bowman et al., Proc. Natl. Acad. Sci. USA, 85, 7972-7976, 1988.

[2] = target: Chromaffin Granule Membrane V-ATPase; assay: V-ATPase inhibitory assay, chromaffin granule membrane; format: biochemical; conditions: Chromaffin Granule Membrane V-ATPase (bovine); read-out: V-ATPase (Ki, nM) CGM
Method: as §1

[3] = tested on: leukemia (MOLT-4) human tumor cell line; assay: 2-day in vitro cytotoxicity assay; format: cell-based; conditions: MOLT-4 leukemia cell line, 2-day in vitro assay
Method: (§2) A 2.0 mg solution of chondropsin A in pyridine-d5 was kept at room temperature and ^1H NMR spectra were periodically acquired. […] After 7 days, the pyridine was removed under reduced pressure and the residue was purified by HPLC as described above to give 0.6 mg of a compound that by FABMS, HPLC retention time, ^1H NMR, and HSQC data, was identical to chondropsin D. Thus, chondropsin D can be prepared from chondropsin A via a base-catalyzed transesterification reaction in which the ester migrates from O-34 to O-67. The characterization of chondropsin D was facilitated by spectral analysis of the product of the corresponding base-catalyzed transesterification reaction of the dimethyl ester of chondropsin A (FIG. 1A, compound (3)), which produced the dimethyl ester of chondropsin D (FIG. 1A, compound (9)). Chondropsin D was evaluated for cytotoxic activity towards melanoma (LOX) and leukemia (MOLT-4) human tumor cell lines in a 2-day in vitro assay, the procedure for which is described in Bokesch et al., J. Nat. Prod., 62, 633-635 (1999).

[4] = tested on: melanoma (LOX) human tumor cell line; assay: 2-day in vitro cytotoxicity assay; format: cell-based; conditions: 2-day in vitro assay
Method: as §2

Compound | Ki [1] | Ki [2] | IC50 (cytotoxic activity) [3] | IC50 (cytotoxic activity) [4]
COC(=O)C(O)CC(=O)OC1CC=C(C)C(O)C(C)C=C(C)C(O)C(C)C(O)CC2CC(C)CC(CC=CC=CCCC=CC=CC(=O)NC(C(O)C(=O)OC)C(=O)OC(C(NC(=O)C(C)C(O)CCC(C)C(O)C(C)=CC(C)C(O)C(NC(=O)C=CC(C)(C)C(=O)C(C)C(O)C(C)(C)C(=O)OC)C(O)C(C)C)C(C)O)C1C)O2 (centres unmarked) [Chondropsin A, dimethyl ester, chondropsin A dimethyl ester] | 50 nM | 500 nM |  | 
COC(=O)C(C)(C)C(O)C(C)C(=O)C(C)(C)C=CC(=O)NC(C(O)C(C)C)C(O)C(C)C=C(C)C(O)C(C)CCC(O)C(C)C(=O)NC1C(C)OC(=O)C(C(O)C(=O)O)NC(=O)C=CC=CCCC=CC=CCC2CC(C)CC(CC(O)C(C)C(O)C(C)=CC(C)C(O)C(C)=CCC(OC(=O)CC(O)C(=O)O)C(C)C1O)O2 (centres unmarked) [Chondropsin D, chondropsin D] | 140 nM | > 10000 nM | ~0.25 µg/mL (≈ 0.157 µM) | approximately 10 ng/mL
COC(=O)C(C)(C)C(O)C(C)C(=O)C(C)(C)C=CC(=O)NC(CC(C)C)C(O)C(C)C=C(C)C(O)C(C)CCC(O)C(C)C(=O)NC(C(C)O)C1OC(=O)C(C(O)C(=O)O)NC(=O)C=CC=CCCC=CC=CCC2CC(C)CC(CC(O)C(C)C(O)C(C)=CC(C)C(O)C(C)=CCC(OC(=O)CC(O)C(=O)O)C1C)O2 (centres unmarked) [Chondropsin A, 73-deoxy, 73-deoxychondropsin A] | 100 nM | 3000 nM |  | 
C/C=C/[C@H]1O[C@@](O)([C@@H](C)[C@H](O)[C@H](C)[C@H]2OC(=O)/C(OC)=C/C(C)=C/[C@@H](C)[C@@H](O)[C@@H](CC)[C@@H](O)[C@H](C)C/C(C)=C/C=C/[C@@H]2OC)C[C@@H](O[C@H]2C[C@@H](O)[C@H](OC(N)=O)[C@@H](C)O2)[C@@H]1C [Concanamycin A, concanamycin A, reference compound] | 4 nM | 6 nM |  | 
CO/C1=C\C(C)=C\[C@@H](C)[C@@H](O)[C@@H](C)C/C(C)=C/C=C/[C@H](OC)[C@@H]([C@@H](C)[C@@H](O)[C@H](C)[C@@]2(O)C[C@@H](O)[C@H](C)[C@@H](C(C)C)O2)OC1=O [Bafilomycin A1, bafilomycin A1, reference compound] | 13 nM | 6 nM |  | 
COC(=O)C(C)(C)C(O)C(C)C(=O)C(C)(C)C=CC(=O)NC(C(O)C(C)C)C(O)C(C)C=C(C)C(O)C(C)CCC(O)C(C)C(=O)NC(C(C)O)C1OC(=O)C(C(O)C(=O)O)NC(=O)C=CC=CCCC=CC=CCC2CC(C)CC(CC(O)C(C)C(O)C(C)=CC(C)C(O)C(C)=CCC(O)C1C)O2 (centres unmarked) [Chondropsin B, chondropsin B] | 200 nM | 6000 nM |  | 
CC/C=C\C=C/C(=O)N/C=C/C[C@H]1C[C@@H](O)[C@@H](C)C/C=C/Cc2cccc(O)c2C(=O)O1 [Salicylihalamide A, salicylihalamide A, reference compound] | > 10000 nM | 6.5 nM |  | 
COC(=O)C(C)(C)C(O)C(C)C(=O)C(C)(C)C=CC(=O)NC(C(O)C(C)C)C(O)C(C)C=C(C)C(O)C(C)CCC(O)C(C)C(=O)NC(C(C)O)C1OC(=O)C(C(O)C(=O)O)NC(=O)C=CC=CCCC=CC=CCC2CC(C)CC(CC(O)C(C)C(O)C(C)=CC(C)C(O)C(C)=CCC(OC(=O)CC(O)C(=O)O)C1C)O2 (centres unmarked) [Chondropsin A, chondropsin A] | 800 nM | > 10000 nM |  | 
CC1=CCC(OC(=O)CC(O)C(=O)O)C(C)C(C(NC(=O)C(C)C(O)CCC(C)C(O)C(C)=CC(C)C(O)C(CC(C)C)NC(=O)C=CC(C)(C)C(=O)C(C)C(O)C(C)C)C(C)O)OC(=O)C(C(O)C(=O)O)NC(=O)C=CC=CCCC=CC=CCC2CC(C)CC(CC(O)C(C)C(O)C(C)=CC(C)C1O)O2 (centres unmarked) [Chondropsin C, chondropsin C] | 80 nM | 3000 nM |  | 
